According to patent US9937136B2, “Methods for treating radiation induced gastrointestinal tract injury” (RDD PHARMA LTD., priority 2013, dated 2018):

Tested on: radiation induced gastrointestinal tract injury
Assay: Radiation-induced gastrointestinal tract injury in mice, mucosal alteration histological scoring
Type: in vivo, male C57BL/6 mice
Settings: enemas 75 mg/kg body weight for 9 days from day of irradiation; Cs-137 12 Gy to pelvic area; versus saline enemas
Method: Fourteen male C57BL/6 mice were treated with enemas containing either 75 mg/kg body weight of Mesna or saline as a control for 9 days post-exposure to Cs-137 radiation (12 Gy) in the pelvic area. Radiation Injury Histological Scoring (0=no change, 3=severe change) was employed to assess treatment efficacy. The present invention is based in part on the unexpected finding that the rectal administration of Mesna to mice experiencing radiation induced gastrointestinal tract injury, reduces symptoms of the condition. In the present study, 14 male C57BL/6 mice were randomly divided into two groups—treatment group and control group. The pelvic area (containing the ano-rectal part of the intestine) of each mouse was exposed to a Cs-137 source and irradiated over 2 minutes at a rate of 6 Gy/min (a 12 Gy dose). Starting from the day of irradiation and for a period of 9 days, mice in the treatment group received enemas containing Mesna at a dose of 75 mg/kg body weight. Animals in the control group received saline enemas as a control. Animals were sacrificed nine days post irradiation and gross necropsy of the anus, rectum and colon was performed and documented by high resolution color pictures. […]

For `O=S(=O)([O-])CCS.[Na+]` [Mesna, sodium 2-sulfanylethanesulfonate], the “mucosal alteration score (0=no change, 3=severe change)” value was “significantly reduced”.
